We go through 17 molecules from patent publication US8648076B2, “Cysteine protease inhibitors and their therapeutic applications” (Hybrigenics SA, priority 2005, dated 2014).

Holding throughout (assay type): biochemical
One test addresses T1, USP7 (Homo sapiens, UniProt Q93009).
T1 construct: His tag (from pFastBac-HT vector) (N); made in house; host or cells: insect cells (Sf9 or High Five), baculovirus
The test can be described thus: USP7 activity assay.

The target of the next test is T2, USP8 (Homo sapiens, UniProt P40818).
T2 sequence (P40818 1-1118): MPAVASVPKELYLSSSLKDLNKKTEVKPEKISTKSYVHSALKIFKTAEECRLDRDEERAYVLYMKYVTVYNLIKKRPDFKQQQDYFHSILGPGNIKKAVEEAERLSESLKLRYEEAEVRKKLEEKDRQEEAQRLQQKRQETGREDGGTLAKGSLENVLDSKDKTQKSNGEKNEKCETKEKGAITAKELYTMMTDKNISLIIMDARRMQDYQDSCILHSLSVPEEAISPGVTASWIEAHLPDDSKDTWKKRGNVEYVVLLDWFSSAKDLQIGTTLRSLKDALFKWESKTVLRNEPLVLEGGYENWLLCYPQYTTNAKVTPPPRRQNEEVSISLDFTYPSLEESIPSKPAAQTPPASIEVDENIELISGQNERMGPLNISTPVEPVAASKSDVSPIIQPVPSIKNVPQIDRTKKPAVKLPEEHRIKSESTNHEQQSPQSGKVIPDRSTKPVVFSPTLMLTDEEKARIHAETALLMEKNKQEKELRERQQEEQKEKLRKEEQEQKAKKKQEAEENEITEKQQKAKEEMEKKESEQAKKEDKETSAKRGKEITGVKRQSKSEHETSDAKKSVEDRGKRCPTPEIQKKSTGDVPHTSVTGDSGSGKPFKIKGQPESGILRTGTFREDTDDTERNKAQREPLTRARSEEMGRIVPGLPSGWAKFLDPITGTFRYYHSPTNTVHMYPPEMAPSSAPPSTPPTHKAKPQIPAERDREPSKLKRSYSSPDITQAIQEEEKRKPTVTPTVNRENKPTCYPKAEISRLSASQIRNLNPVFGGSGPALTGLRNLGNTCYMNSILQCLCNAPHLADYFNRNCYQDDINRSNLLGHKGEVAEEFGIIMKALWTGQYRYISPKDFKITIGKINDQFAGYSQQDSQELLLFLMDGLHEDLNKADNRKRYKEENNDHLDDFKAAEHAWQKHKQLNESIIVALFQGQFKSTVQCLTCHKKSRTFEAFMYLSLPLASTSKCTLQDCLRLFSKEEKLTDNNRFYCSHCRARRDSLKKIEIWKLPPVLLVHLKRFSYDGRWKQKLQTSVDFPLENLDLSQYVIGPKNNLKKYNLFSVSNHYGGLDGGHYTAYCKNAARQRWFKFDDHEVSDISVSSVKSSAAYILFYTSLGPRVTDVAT
The test can be described thus: USP8 activity assay. The settings on record: 400 nM Ub-AMC, pH8.8, 30 min pre-incubation at 25° C., 60 min at 37° C.; sigmoidal fit; AF: Autofluorescent; read-out: USP 8 (inhibition of cysteine protease activity).

In another test the target is T3, Uch-L3 (Homo sapiens, UniProt P15374).
T3 sequence (P15374 1-230): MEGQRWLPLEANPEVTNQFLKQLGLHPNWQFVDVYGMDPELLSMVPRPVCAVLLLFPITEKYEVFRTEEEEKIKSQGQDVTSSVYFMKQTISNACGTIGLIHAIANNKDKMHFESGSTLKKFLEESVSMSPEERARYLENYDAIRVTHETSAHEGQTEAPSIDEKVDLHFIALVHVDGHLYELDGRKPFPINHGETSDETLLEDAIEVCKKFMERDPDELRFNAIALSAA
Description: UCH-L3 activity assay. The settings on record: 400 nM Ub-AMC, 13 pM enzyme, 30 min pre-incubation at 25° C., 60 min at 37° C.; sigmoidal fit; AF: Autofluorescent; read-out: Uch-L3 (inhibition of cysteine protease activity). As to the method:
(§1) Bovine Serum Albumin 0.05 mg·ml^−1 pH7.6). Compounds stocks (100 mM) were stored at −20° C. in DMSO. […] Reactions were performed as duplicates in Black LJL 96 well plates (HE microplates; Molecular Devices; 20 μl final reaction volume). The substrate concentration for Uch-L3 was 400 nM Ub-AMC (Boston Biochem). The concentration of the enzyme (Uch-L3) in specificity assays was 13 pM. The concentrations were determined in order to perform specificity assays under initial velocities at fixed substrate concentration. Compounds were pre-incubated with enzymes for 30 minutes at 25° C. Reactions were initiated by addition of substrate to the plates containing the enzymes (+/−compounds) diluted in assay buffer. Reactions were incubated for 60 minutes at 37° C. Reactions were stopped by adding acetic acid (100 mM final). Readings were performed on a Pherastar Fluorescent Reader (BMG). δ Emission 380 nm; δ Excitation=460 nm. Data (mean values+/− standard deviation) were analyzed as % of control (no compound) and plotted as percentage versus the Log of the compound concentration using GraphPad (Prism). Data were fitted to a sigmoidal model (variable slope).

The target of a further test is T4, Caspase 3 (Homo sapiens, UniProt P42574).
T4 sequence (P42574 29-175 limits assumed): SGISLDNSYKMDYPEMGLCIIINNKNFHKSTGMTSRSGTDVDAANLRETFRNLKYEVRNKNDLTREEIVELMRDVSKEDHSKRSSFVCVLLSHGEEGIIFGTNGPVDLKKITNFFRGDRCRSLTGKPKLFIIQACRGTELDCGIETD
T4 sequence (P42574 176-277 limits assumed): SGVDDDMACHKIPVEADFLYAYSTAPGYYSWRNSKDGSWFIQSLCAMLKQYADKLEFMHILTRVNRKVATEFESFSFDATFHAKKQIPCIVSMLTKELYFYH
Description: Caspase 3 activity assay. The settings on record: 500 nM Ac-DEVD-AMC, 3.2 nM enzyme, 30 min pre-incubation at 25° C., 60 min at 37° C.; sigmoidal fit; AF: Autofluorescent; read-out: Casp3 (inhibition of cysteine protease activity). How it is done: as §1, with “Compounds” for “Bovine Serum Albumin 0.05 mg·ml^−1 pH7.6). Compounds”, “caspase 3 specificity assay” for “Uch-L3”, “500” for “400”, “(Ac-DEVD-AMC; Promega). […]” for “Ub-AMC (Boston Biochem). The concentration of the enzyme (Uch-L3) in specificity assays was 13 pM.”

[1] abbreviates: 400 nM Ub-AMC, 152 pM enzyme, 30 min pre-incubation at 25° C., 60 min at 37° C., sigmoidal fit, read-out: USP 7 (inhibition of cysteine protease activity).

Structures are written as SMILES. Read-outs that look alike come from different tables or passages of the source. Where only a bound is given, the exact number is not on record here.

T1 sequence (Q93009 whole entry): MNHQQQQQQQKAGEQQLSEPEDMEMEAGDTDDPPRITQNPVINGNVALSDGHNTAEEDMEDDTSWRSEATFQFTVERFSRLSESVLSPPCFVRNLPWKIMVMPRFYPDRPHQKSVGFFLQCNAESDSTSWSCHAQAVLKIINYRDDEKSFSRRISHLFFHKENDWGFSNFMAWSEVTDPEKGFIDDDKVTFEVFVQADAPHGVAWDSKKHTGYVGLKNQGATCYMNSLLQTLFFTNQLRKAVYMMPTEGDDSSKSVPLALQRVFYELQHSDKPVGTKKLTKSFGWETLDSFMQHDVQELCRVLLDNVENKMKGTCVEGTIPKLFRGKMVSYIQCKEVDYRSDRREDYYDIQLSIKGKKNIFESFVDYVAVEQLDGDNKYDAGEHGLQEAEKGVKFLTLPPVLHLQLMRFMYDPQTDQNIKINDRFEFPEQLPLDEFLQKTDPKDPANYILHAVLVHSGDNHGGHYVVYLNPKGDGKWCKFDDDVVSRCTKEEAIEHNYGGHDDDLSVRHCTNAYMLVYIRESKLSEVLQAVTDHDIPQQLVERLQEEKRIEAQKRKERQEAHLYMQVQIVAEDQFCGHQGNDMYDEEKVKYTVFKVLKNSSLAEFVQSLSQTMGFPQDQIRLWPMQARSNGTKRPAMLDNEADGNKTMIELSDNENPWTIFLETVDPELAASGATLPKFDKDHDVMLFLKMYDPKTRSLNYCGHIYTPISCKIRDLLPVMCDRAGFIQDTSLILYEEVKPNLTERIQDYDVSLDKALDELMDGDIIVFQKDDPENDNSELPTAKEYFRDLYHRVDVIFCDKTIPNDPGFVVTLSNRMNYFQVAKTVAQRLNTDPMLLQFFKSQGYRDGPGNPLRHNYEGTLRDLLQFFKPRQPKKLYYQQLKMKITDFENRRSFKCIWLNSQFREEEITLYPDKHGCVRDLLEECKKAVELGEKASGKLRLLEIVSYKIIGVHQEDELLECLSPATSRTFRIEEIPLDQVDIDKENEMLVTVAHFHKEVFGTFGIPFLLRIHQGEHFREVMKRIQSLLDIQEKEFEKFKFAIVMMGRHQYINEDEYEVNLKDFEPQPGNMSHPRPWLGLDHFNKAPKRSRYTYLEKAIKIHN

For the molecule `C=CCON=C1c2ccccc2-c2nc(C#N)c(C#N)nc21` (mixture of isomers) [Example 13b, 9-(Allyloxyimino)-9H-indeno[1,2-b]pyrazine-2,3-dicarbonitrile], the IC50 against USP7 is over 100 µM; on USP8, 0.56 µM; at Uch-L3, 10 µM; at Caspase 3, over 100 µM.

For the molecule `Cc1cccc2c1C(=O)c1nc(C#N)c(C#N)nc1-2` [Example 17c, 8-Methyl-9-oxo-9H-indeno[1,2-b]pyrazine-2,3-dicarbonitrile], the IC50 is over 100 µM on USP7 (setting [1]), 3.1 µM on USP8, 2 µM at Uch-L3 and 13 µM on Caspase 3.

For `N#CNc1nc2c(nc1C#N)C(=O)c1ccccc1-2` [Example 21, 2-cyano-9-oxo-9H-indeno[1,2-b]pyrazin-3-yl-cyanamide], the IC50 at USP7 (setting [1]), on USP8, at Uch-L3 and on Caspase 3 was over 100 µM each time.

Turning to `N#Cc1nc2c(nc1CC(N)=O)-c1ccccc1C2=O` [Example 26, 2-(2-cyano-9-oxo-9H-indeno[1,2-b]pyrazin-3-yl)-acetamide], the results for the IC50 against USP7, on USP8 and at Uch-L3 were over 100 µM, 11 µM and 1.6 µM, respectively.

With `COc1cc2c(cc1OC)-c1nc(C#N)c(C#N)nc1C2=O` [Example 17b, 6,7-Dimethoxy-9-oxo-9H-indeno[1,2-b]pyrazine-2,3-dicarbonitrile], the IC50 at USP7 (setting [1]) turned out to be 10.2 µM; on USP8, 2.5 µM; on Uch-L3, 5.4 µM; on Caspase 3, 51 µM.

Turning to `N#Cc1nc2c(nc1C#N)-c1ccccc1C2=O` [Example 1, 9-oxo-9H-indeno[1,2-b]pyrazine-2,3-dicarbonitrile], the IC50 on USP7 (setting [1]) worked out at 3.5 µM; on USP8, 0.29 µM; at Uch-L3 it was 0.76 µM; at Caspase 3, 0.69 µM.

On to `COc1ccc2c(c1)-c1nc(C#N)c(C#N)nc1C2=O` [Example 17a, 6-Methoxy-9-oxo-9H-indeno[1,2-b]pyrazine-2,3-dicarbonitrile], for which the IC50 is over 100 µM at USP7 (setting [1]), 4 µM at USP8, 7 µM at Uch-L3 and 10 µM at Caspase 3.

Consider `C=CCON=C1c2ccc(Cl)cc2-c2nc(C#N)c(C#N)nc21` [Example 27c, 9-Allyloxyimino-6-chloro-9H-indeno[1,2-b]pyrazine-2,3-dicarbonitrile], for which the IC50 came out at 3.5 µM against USP7, 0.201 µM on USP8, 0.502 µM on Uch-L3 and 2.83 µM at Caspase 3.

For the molecule `CON=C1c2ccccc2-c2nc(C(N)=O)c(C#N)nc21` [Example 34d, 2-Cyano-9-methoxyimino-9H-indeno[1,2-b]pyrazine-3-carboxylic acid amide], the IC50 came to 0.396 µM on USP7, 0.029 µM on USP8, 0.037 µM on Uch-L3 and 0.131 µM at Caspase 3.

Take `N#Cc1nc2c(nc1C#N)-c1ccccc1C2=NOCCOc1ccccc1` [Example 27a, 9-(2-Phenoxy-ethoxyimino)-9H-indeno[1,2-b]pyrazine-2,3-dicarbonitrile]: the IC50 was over 100 µM against USP7, 2.3 µM on USP8, 10.5 µM at Uch-L3 and over 100 µM at Caspase 3.

With `COCCOc1nc2c(nc1C#N)C(=O)c1ccccc1-2` [Example 5, 3-(2-methoxy-ethoxy)-9-oxo-9H-indeno[1,2-b]pyrazine-2-carbonitrile], the IC50 at USP7 (setting [1]) is over 100 µM; at USP8, 53 µM; at Uch-L3, 24 µM; on Caspase 3 it was over 100 µM.

`COc1ccc2c(c1OC)C(=O)c1nc(C#N)c(C#N)nc1-2` [Example 17d, 7,8-Dimethoxy-9-oxo-9H-indeno[1,2-b]pyrazine-2,3-dicarbonitrile]: the IC50 was 18 µM at USP7 (setting [1]), 0.71 µM on USP8, 0.77 µM on Uch-L3 and 1.8 µM on Caspase 3.

In the case of `Cc1ccc2c(c1)-c1nc(C#N)c(C#N)nc1C2=O` [Example 17e, 6-Methyl-9-oxo-9H-indeno[1,2-b]pyrazine-2,3-dicarbonitrile], the IC50 at USP7 (setting [1]) worked out at 7.2 µM; on USP8, 0.93 µM; at Uch-L3, 2.1 µM; at Caspase 3 it was 3.3 µM.

On to `N#Cc1nc2c(nc1C(N)=O)-c1ccccc1/C2=N\O` [Example 11, 2-cyano-9-[hydroxyimino]-9H-indeno[1,2-b]pyrazine-3-carboxylic acid amide], for which the IC50 came out at 13 µM at USP7 (setting [1]), 0.73 µM at USP8, 0.6 µM on Uch-L3 and 2.3 µM at Caspase 3.

Take `CCO/C(O)=C(\C#N)c1nc2c(nc1C#N)C(=O)c1ccccc1-2` [Example 22, 3-(1-cyano-2-ethoxy-2-hydroxy-vinyl)-9-oxo-9H-indeno[1,2-b]pyrazine-2-carbonitrile]: the IC50 was 22 µM at Uch-L3 and over 100 µM on Caspase 3.

As to `CCON=C1c2ccccc2-c2nc(C#N)c(C#N)nc21` (mixture of isomers) [Example 13d, 9-Ethoxyimino-9H-indeno[1,2-b]pyrazine-2,3-dicarbonitrile], the values for the IC50 on USP7 (setting [1]), at Uch-L3 and on Caspase 3 were over 100 µM, 1.3 µM and over 100 µM, respectively.

For the molecule `N#Cc1nc2c(nc1C#N)C1(OCCO1)c1ccccc1-2` [Example 10], the IC50 at USP8 is 13 µM; at Uch-L3 it was 20 µM; on Caspase 3, over 100 µM.
